In patent publication US12612412B2, “Antiviral heterocyclic compounds” (Enanta Pharmaceuticals, Inc., priority 2021, dated 2026):
Where two headings read alike, the source gives them in different places.

Key:
[1] = test system: genotype A, "Long" strain RSV; test: RSV-A assay (CPE protection in Hep-2 cells, ATPlite readout); type: cell-based, Human respiratory syncytial virus (HRSV); conditions: human respiratory syncytial virus, MOI 0.1, CPE protection
Procedure, shortened: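 Hep-2 cells (8,000/well) infected with RSV Long strain at MOI 0.1 in the presence of 2-fold compound dilutions in duplicate. After 5 days, cell viability measured by ATPlite luminescence, normalized between virus-only and uninfected cell controls; EC50 reported.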

[2] = test system: HMPV clinical isolate TN/1501/A1; test: HMPV antiviral assay Method-B (clinical isolate TN/1501/A1 in LLC-MK2 cells, ATP-Lite readout); type: cell-based, Human metapneumovirus (HMPV); conditions: human metapneumovirus, LLC-MK2, 144 h, hMPV WT1501 (clinical isolate TN/1501/A1), 6 days
Procedure, shortened: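 LLC-MK2 cells infected in suspension with TN/1501/A1 at MOI 0.014 in serum-free medium with 2 μg/mL TPCK-trypsin (final), incubated 6 days at 37° C. Compounds tested in duplicate, 10-point 3-fold dilutions from 10 μM. Cell health read by ATP-Lite luminescence, normalised to virus-only and cells-only controls; EC50 by four-parameter logistic fit.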

[3] = genotype A “Long” strain RSV, read-out: Human RSV-A (“Long”)
[4] = RSV-A Long strain, read-out: Human RSV-A (“Long”) EC50

SMILES | EC50 [1, 3] [nM] | EC50 [2] [nM] | EC50 [1, 4] [nM]
C[C@]1(C(N)=O)COc2c1cc([C@@](O)(CNC(=O)c1cc(F)c3nn(C4CC4)cc3c1)C1CC1)nc2-c1ccc2c(c1)OC(F)(F)O2 [Example 545] | < 200 | < 500 | 
COc1cc(C(=O)NC[C@](O)(c2cc3c(c(-c4ccc(F)cc4)n2)OC[C@]3(C)C(N)=O)C2CC2)cc2cc(C)nnc12 [Example 762] | < 200 | < 500 | 
COc1cc(-c2nc([C@@](O)(CNC(=O)c3cc(OC)c4nn(C5CC5)cc4c3)C(F)(F)F)cc3c2OC[C@]3(C)C(N)=O)ccc1F [Example 914] |  | > 500 | < 200
Cc1cnc2c(Cl)cc(C(=O)NC[C@](O)(c3cc4c(c(-c5ccc(C(F)(F)F)cc5)n3)OC[C@]4(C)C(N)=O)C3CC3)cc2c1 [Example 798] | < 200 | < 500 | 
C[C@]1(C(N)=O)COc2c1cc([C@@](O)(CNC(=O)c1cc(OCCF)c3nn(C4(F)CC4)cc3c1)C(F)(F)F)nc2-c1ccc(F)cc1 [Example 878] |  | > 500 | < 200
Cc1cnc2c(OC(F)F)cc(C(=O)NC[C@](O)(c3cc4c(c(-c5ccc6c(c5)OC(F)(F)O6)n3)OC[C@]4(C)C(N)=O)C3(F)CC3)cc2c1 [Example 713] | < 200 | < 500 | 
COc1cc(C(=O)NC[C@](O)(c2cc3c(c(-c4ccc(F)cc4Cl)n2)OC[C@]3(C)C(N)=O)C(F)(F)F)cc2cc(Br)cnc12 [Example 521] | < 200 | < 500 | 
C[C@]1(C(N)=O)COc2c1cc([C@@](O)(CNC(=O)c1cc(OC3CC3)c3nn(C4(F)CC4)cc3c1)C1CC1)nc2-c1csc2c(F)cccc12 [Example 607] | < 200 | < 500 | 
COc1cc(C(=O)NC[C@](O)(c2cc3c(c(-c4ccc(F)cc4)n2)OC[C@]3(C)C(N)=O)C2(F)CC2)cc2cc(C3CC3)nn12 [Example 706] | < 200 | < 500 | 
C[C@]1(C(N)=O)COc2c1cc([C@@](O)(CNC(=O)c1cc(OCC3CC3)c3nn(C4(F)CC4)cc3c1)C(F)(F)F)nc2-c1cc(Cl)c(F)cc1F [Example 616] | < 200 | < 500 | 
C[C@]1(C(N)=O)COc2c1cc([C@@](O)(CNC(=O)c1cc(Cl)c3nn(C4CC4)cc3c1)C1(F)CC1)nc2-c1cc(Cl)c(F)cc1F [Example 759] | < 200 | < 500 | 
COc1cc(C(=O)NC[C@](O)(c2cc3c(c(-c4ccc(F)c(F)c4F)n2)OC[C@]3(C)C(N)=O)C2(F)CC2)cc2cc(Cl)c(C)nc12 [Example 731] | < 200 | < 500 | 
Cc1cnc2c(OC(F)F)cc(C(=O)NC[C@](O)(c3cc4c(c(-c5ccc(F)c(F)c5F)n3)OC[C@]4(C)C(N)=O)C3(F)CC3)cc2c1 [Example 730] | < 200 | < 500 | 
Cc1cnc2c(Cl)cc(C(=O)NC[C@](O)(c3cc4c(c(-c5cc(Br)c(F)cc5F)n3)OC[C@]4(C)C(N)=O)C3CC3)cc2c1 [Example 1093] |  | < 500 | < 200
COc1cc(C(=O)NC[C@](O)(c2cc3c(c(-c4c(F)cccc4Cl)n2)OC[C@]3(C)C(N)=O)C(F)(F)F)cc2cn(C3CC3)nc12 [Example 989] |  | < 500 | < 200
COc1cc(C(=O)NC[C@](O)(c2cc3c(c(-c4ccc(Cl)cc4)n2)OC[C@]3(C)C(N)=O)C(F)(F)F)cc2cn(C(F)F)nc12 [Example 586] | < 200 | > 500 | 
Cc1onc2ccc(C(=O)NC[C@](O)(c3cc4c(c(-c5ccc(F)cc5)n3)OC[C@]4(C)C(N)=O)C(F)(F)F)cc12 [Example 887] |  | > 500 | < 200
COc1cc(C(=O)NC[C@@](O)(c2cc3c(c(-c4cccc(Cl)c4F)n2)OC[C@]3(C)C(N)=O)C(F)(F)F)cc2cn(C3CC3)nc12 [Example 921] |  | > 500 | > 200
COc1cc(C(=O)NC[C@](O)(c2cc3c(c(-c4ccc(F)c(C#N)c4F)n2)OC[C@]3(C)C(N)=O)C(F)(F)F)cc2cn(C3CC3)nc12 [Example 1080] |  | < 500 | < 200
C[C@]1(C(N)=O)COc2c1cc([C@@](O)(CNC(=O)c1cc(Cl)c3nn(C4CC4)cc3c1)C(F)(F)F)nc2-c1cc(Cl)c(F)c(Cl)c1 [Example 673] | < 200 | > 500 | 
COc1cc(C(=O)NC[C@](O)(c2cc3c(c(-c4ccc(F)c(Cl)c4)n2)OC[C@]3(C(N)=O)C(F)F)C(F)(F)F)cc2sc(C3CC3)nc12 [Example 1016] |  | > 500 | > 200
COc1cc(C(=O)NC[C@](O)(c2cc3c(c(-c4ccc(F)c(Br)c4F)n2)OC[C@]3(C)C(N)=O)C2CC2)cc2cn(C3CC3)nc12 [Example 799] | < 200 | < 500 | 
COc1cc(C(=O)NC[C@](O)(c2cc3c(c(-c4csc5c(F)cccc45)n2)OC[C@]3(C)C(N)=O)C(F)(F)F)cc2cc(Cl)c(C)nc12 [Example 596] | < 200 | < 500 | 

SMILES | EC50 [1, 3] [nM] | EC50 [2] [nM] | EC50 [1, 4] [nM]
COc1cc(C(=O)NC[C@](O)(c2cc3c(c(-c4ccc(F)cc4)n2)OC[C@]3(C)C(N)=O)C2(F)CC2)cc2sc(C3CC3)nc12 [Example 742] | < 200 | < 500 | 
C[C@]1(C(N)=O)COc2c1cc([C@@](O)(CNC(=O)c1cc(Cl)c3nn(C4CC4)cc3c1)C1CC1)nc2-c1ccc2c(c1)OC(F)(F)O2 [Example 547] | < 200 | < 500 | 
COc1cc(C(=O)NC[C@](O)(c2cc3c(c(-c4ccc(C(F)(F)F)cc4)n2)OC[C@]3(C)C(N)=O)C2CC2)cc2cn(C3CC3)nc12 [Example 793] | < 200 | < 500 | 
NC(=O)[C@]1(CF)COc2c1cc([C@@](O)(CNC(=O)c1cc(OC3CC3)c3ncccc3c1)C1CC1)nc2-c1ccc(F)cc1 [Example 1053] |  | > 500 | > 200
COc1cc(C(=O)NC[C@](O)(c2cc3c(c(N4CCOCC4)n2)OC[C@]3(C)C(N)=O)C(F)(F)F)cc2cn(C3CC3)nc12 [Example 1269] |  | > 500 | > 200
Cc1cnc2c(OC(F)F)cc(C(=O)NC[C@](O)(c3cc4c(c(-c5ccc(F)c(Cl)c5)n3)OC[C@]4(C)C(N)=O)C3CC3)cc2c1 [Example 496] | < 200 | < 500 | 
COc1cc(C(=O)NC[C@](O)(c2cc3c(c(-c4ccc(OC(F)F)cc4)n2)OC[C@]3(C)C(N)=O)C(F)(F)F)cc2cn(C3CC3)nc12 [Example 926] |  | > 500 | < 200
C[C@]1(C(N)=O)COc2c1cc([C@@](O)(CNC(=O)c1cc(OC3CC3)c3nn(C(F)F)cc3c1)C1CC1)nc2-c1ccc(F)c(Cl)c1F [Example 568] | < 200 | < 500 | 
C[C@]1(C(N)=O)COc2c1cc([C@@](O)(CNC(=O)c1cc(OC3CC3)n3nc(C4CC4)cc3c1)C1CC1)nc2-c1ccc2c(c1)OC(F)(F)O2 [Example 822] | < 200 | < 500 | 
COc1cc(C(=O)NC[C@](O)(c2cc3c(c(-c4ccc(F)c(Cl)c4F)n2)OC[C@]3(C)C(N)=O)C2(F)CC2)cc2cn(C3CC3)nc12 [Example 752] | < 200 | < 500 | 
C[C@]1(C(N)=O)COc2c1cc([C@@](O)(CNC(=O)c1cc(F)c3nc(C4CC4)cn3c1)C(F)(F)F)nc2-c1ccc2c(c1)OC(F)(F)O2 [Example 548] | < 200 | < 500 | 
COc1cc(C(=O)NC[C@](O)(c2cc3c(c(-c4ccc(F)c(Cl)c4)n2)OC[C@]3(C)C(N)=O)C2(F)CC2)cc2cn(C(F)F)nc12 [Example 721] | < 200 | > 500 | 
COc1cc(C(=O)NC[C@](O)(c2cc3c(c(-c4cnc(C#N)c(Cl)c4)n2)OC[C@]3(C)C(N)=O)C(F)(F)F)cc2cn(C3CC3)nc12 [Example 583] | < 200 | > 500 | 
NC(=O)[C@@]1(CF)COc2c1cc([C@@](O)(CNC(=O)c1cc(OC3CC3)c3ncccc3c1)C1CC1)nc2-c1ccc(F)cc1 [Example 1054] |  | > 500 | < 200
Cc1nc2c(Cl)cc(C(=O)NC[C@](O)(c3cc4c(c(-c5ccc(F)c(Cl)c5)n3)OC[C@]4(C)C(N)=O)C3CC3)cc2cc1Cl [Example 500] | < 200 | < 500 | 
COc1cc(C(=O)NC[C@](O)(c2nc(-c3ccc(F)c(Cl)c3F)c3c(c2F)[C@@](C)(C(N)=O)CO3)C2CC2)cc2cn(C(F)F)nc12 [Example 1161] |  | < 500 | < 200
COc1cc(C(=O)NC[C@](O)(c2cc3c(c(-c4ccc5c(c4)OCCO5)n2)OC[C@]3(C)C(N)=O)C(F)(F)F)cc2cn(C3CC3)nc12 [Example 973] |  | > 500 | > 200
COc1cc(C(=O)NC[C@](O)(c2cc3c(c(-c4cccc(F)c4)n2)OC[C@]3(C)C(N)=O)C(F)(F)F)cc2cn(C3CC3)nc12 [Example 912] |  | < 500 | < 200
COc1cc(C(=O)NC[C@](O)(c2cc3c(c(-c4ccc(F)cc4)n2)OC[C@]3(C)C(N)=O)C2CC2)cc2sc(C3CC3)nc12 [Example 741] | < 200 | < 500 | 
C[C@]1(C(N)=O)COc2c1cc([C@@](O)(CNC(=O)c1cc(OC3CC3)c3nn(C4(F)CC4)cc3c1)C1CC1)nc2-c1ccc2c(c1)OC(F)(F)O2 [Example 846] |  | < 500 | < 200
COc1cc(C(=O)NC[C@](O)(c2cc3c(c(-c4cc(Cl)c(F)cc4F)n2)OC[C@]3(C)C(N)=O)C2(F)CC2)cc2cn(C3CC3)nc12 [Example 758] | < 200 | < 500 | 
COc1cc(C(=O)NC[C@](O)(c2cc3c(c(-c4ccc5c(ccn5C(F)F)c4)n2)OC[C@]3(C)C(N)=O)C(F)(F)F)cc2cn(C3CC3)nc12 [Example 939] |  | > 500 | < 200
